The values below come from US4822800A (Ortho Pharmaceutical Corporation, priority 1986, dated 1989).

Experiment [1] concerns adult mongrel dogs. Nature of the experiment: acute in vivo cardiotonic activity in anesthetized dogs. Also noted: species or system dog (adult mongrel). The settings on record: for change in vivo at 0.1 mg/kg / change in vivo at 1.875 mg/kg / change in vivo at 0.15 mg/kg / change in vivo at 0.375 mg/kg / change in vivo at 0.925 mg/kg: Canis lupus familiaris, cardiotonic, relative to controls; for change in vivo at 0.1 mg/kg: dose 0.100 mg/kg intravenous; for change in vivo at 1.875 mg/kg: dose 1.875 mg/kg intravenous; for cardiotonic activity (in words): summary of Table 4; for change in vivo at 0.15 mg/kg: dose 0.150 mg/kg intravenous; for change in vivo at 0.375 mg/kg: dose 0.375 mg/kg intravenous; for change in vivo at 0.925 mg/kg: dose 0.925 mg/kg intravenous. How it is done:
The acute in vivo cardiotonic activity of compounds prepared according to the present invention was determined according to a modification of the procedure described by Alousi et al., Circ. Res., 45, 666 (1979).
In particular, adult mongrel dogs were anesthetized with sodium pentobarbital and were artificially respired. Arterial pressure was monitored via a femoral artery, and the pulse pressure was used to trigger a cardiotachometer for heart rate. Left ventricular pressure was determined with a Millar catheter, and dP/dt (the change in ventricular pressure with time) was derived. Cardiac output was determined by measuring ascending aortic blood flow with an electromagnetic flow probe, and myocardial contractile force was measured with a Walton Brodie strain gauge sutured to the right ventricle. Lead II EKG was also recorded.
A standard dose (10 μg/kg/min) of dopamine was administered to assess myocardial responsiveness.
Compounds of the invention were administered by intravenous infusion or bolus […] administration, and the effects on cardiovascular parameters were determined.
Dose related effects of the test compound on blood pressure (BP), heart rate (HR), maximum change in left ventricular pressure with time (dP/dt max),% change in cardiac force (CF) and the increase in mean arterial blood pressure relative to controls (MABP) were compared to pretreatment control values, expressed as a% change and rated for activity.

Experiment [2] concerns the target T1, Phosphodiesterase fraction III (Canis lupus familiaris, UniProt A0A8I3NYE0).
T1 construct: isolated as an isozyme from the crude canine heart homogenate; from tissue; host or cells: canine heart (crude homogenate, ion exchange chromatography, third and last PDE peak)
T1 sequence (A0A8I3NYE0 1-1135): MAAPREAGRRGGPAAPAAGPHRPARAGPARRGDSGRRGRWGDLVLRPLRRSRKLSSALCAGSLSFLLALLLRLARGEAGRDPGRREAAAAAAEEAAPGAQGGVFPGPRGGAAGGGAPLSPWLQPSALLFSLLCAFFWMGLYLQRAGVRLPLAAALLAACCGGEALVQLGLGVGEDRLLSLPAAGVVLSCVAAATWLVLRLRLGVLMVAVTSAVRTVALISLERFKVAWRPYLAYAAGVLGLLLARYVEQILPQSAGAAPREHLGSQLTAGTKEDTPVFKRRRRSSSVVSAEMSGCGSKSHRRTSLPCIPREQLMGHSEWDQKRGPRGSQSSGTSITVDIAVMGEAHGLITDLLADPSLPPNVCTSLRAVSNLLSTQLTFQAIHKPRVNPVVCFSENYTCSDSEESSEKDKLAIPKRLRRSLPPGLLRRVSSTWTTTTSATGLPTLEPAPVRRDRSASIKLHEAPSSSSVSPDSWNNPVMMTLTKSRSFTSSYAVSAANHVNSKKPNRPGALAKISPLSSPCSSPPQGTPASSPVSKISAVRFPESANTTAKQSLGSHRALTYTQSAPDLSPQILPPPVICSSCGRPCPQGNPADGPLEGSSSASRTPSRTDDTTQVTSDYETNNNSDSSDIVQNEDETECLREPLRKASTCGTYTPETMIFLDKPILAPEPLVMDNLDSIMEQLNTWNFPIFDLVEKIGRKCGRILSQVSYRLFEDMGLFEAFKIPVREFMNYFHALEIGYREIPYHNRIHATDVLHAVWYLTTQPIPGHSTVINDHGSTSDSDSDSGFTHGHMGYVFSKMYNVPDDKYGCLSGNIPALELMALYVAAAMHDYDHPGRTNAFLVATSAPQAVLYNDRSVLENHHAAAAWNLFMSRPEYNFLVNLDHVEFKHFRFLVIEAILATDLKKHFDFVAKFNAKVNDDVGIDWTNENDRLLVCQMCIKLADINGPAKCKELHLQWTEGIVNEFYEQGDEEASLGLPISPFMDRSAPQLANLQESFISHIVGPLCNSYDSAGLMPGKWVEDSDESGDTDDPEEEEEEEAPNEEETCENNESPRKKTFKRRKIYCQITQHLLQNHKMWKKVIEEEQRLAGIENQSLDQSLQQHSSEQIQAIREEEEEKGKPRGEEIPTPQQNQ
The experiment can be described thus: inhibition of phosphodiesterase fraction III activity. In kind it is biochemical, canine (heart). The settings on record: for IC50: cyclic AMP 0.10-1.0 uM, pH 7.4, canine heart enzyme; for phosphodiesterase fraction III inhibition (in words): summary of Table 5.

In experiment [3] the test system is adult mongrel dogs. The experiment can be described thus: renal vasodilating activity in anesthetized dogs. In kind it is in vivo, dog (adult mongrel). As to conditions: for change in vivo at 5 mg/kg / change in vivo at 0.2 mg/kg / change in vivo at 1.2 mg/kg: Canis lupus familiaris, renal vasodilator, relative to controls; for change in vivo at 5 mg/kg: dose 5.0 mg/kg intravenous; for renal vasodilating activity (in words): summary of Table 4; for change in vivo at 0.2 mg/kg: dose 0.2 mg/kg intravenous; for change in vivo at 1.2 mg/kg: dose 1.2 mg/kg intravenous. How it is done:
Goldberg et al, J. Pharmacol. Exp. Ther., 163, 188 (1968), performed an investigation of the structural requirements for dopamine-like renal vasodilation of phenethylamines and apomorphine. The following procedure is a variation of the assay described in that report.
Adult mongrel dogs were anesthetized and surgically prepared for electromagnetic measurement of renal artery blood flow. A carotid artery was cannulated for measuring arterial blood pressure, and drugs were administered intravenously. Heart rate was monitored with a cardiotachometer. Renal vascular resistance was calculated as the ratio of mean arterial blood pressure/renal artery blood flow. Dopamine was infused intravenously at 3 μg/kg/min for ten minutes (at an infusion rate of about 1 ml/min) to determine responsiveness of each dog to renal dopamine receptor stimulation. Cumulative dose-response data were obtained by infusing a compound of this invention at progressively increasing (usually three-fold) infusion rates, each dose being infused for five minutes. The maximum % increase from pre-drug control in renal artery blood flow (or a decrease in renal vascular resistance) was determined for each infusion dose.
RBF values are percent change in renal blood flow. RVR values are percent change in renal vascular resistance. MABP and HR are percent changes in mean arterial blood pressure and heart rate, respectively, relative to controls.

[4] abbreviates: read-out: MABP (mean arterial blood pressure).
Where [5] appears, read: read-out: dP/dt (maximum change left ventricular pressure with time).
Setting [6] is: read-out: RBF (renal blood flow).
Where [7] appears, read: read-out: RVR (renal vascular resistance).

Entries after “also recorded” stand apart in the source; their conditions may differ. Like-named read-outs stand apart in the source and are kept apart here.

In the case of `COc1cc2c(C)nc(O)c(C)c2cc1OC` [AB], the change in vivo at 0.1 mg/kg was 80% in experiment [1] (read-out: CF (cardiac force)), 15% in experiment [1] (read-out: HR (heart rate)), -4% in experiment [1] (setting [4]) and 48% in experiment [1] (setting [5]). The IC50 in experiment [2] turned out to be 8.3 µM. Also, in experiment [2], the “phosphodiesterase fraction III inhibition (in words)” value is listed as “inhibit phosphodiesterase fraction III activity”.

As to `COc1cc2c(CCl)nc(O)c(Cl)c2cc1OC` [AD], the change in vivo at 1.875 mg/kg is 111% in experiment [1] (read-out: CF (cardiac force)), 21% in experiment [1] (read-out: HR (heart rate)), -3% in experiment [1] (setting [4]) and 106% in experiment [1] (setting [5]). Also, in experiment [1], the “cardiotonic activity (in words)” value is on record as “cardiotonic properties”. For the same compound, the results for the change in vivo at 5 mg/kg in experiment [3] (setting [6]) and in experiment [3] (setting [7]) were 16% and -32%, respectively. The “renal vasodilating activity (in words)” value in experiment [3] is on record as “renal vasodilating properties”. Besides, the IC50 in experiment [2] stood at 11 µM. In addition, the “phosphodiesterase fraction III inhibition (in words)” value in experiment [2] is recorded as “inhibit phosphodiesterase fraction III activity; also recorded: phosphodiesterase fraction III inhibiting properties”.

Turning to `COc1cc2c(C)nc(O)c(C(C)C)c2cc1OC` [AF], the change in vivo at 0.15 mg/kg in experiment [1] (read-out: CF (cardiac force)) is 92%; in experiment [1] (read-out: HR (heart rate)) it was 8%; in experiment [1] (setting [4]) it was -15%; in experiment [1] (setting [5]), 60%. Besides, the “cardiotonic activity (in words)” value in experiment [1] was “cardiotonic properties”. The change in vivo at 0.2 mg/kg was 28% in experiment [3] (read-out: HR (heart rate)), -16% in experiment [3] (setting [4]), 11% in experiment [3] (setting [6]) and -24% in experiment [3] (setting [7]). Further, the “renal vasodilating activity (in words)” value in experiment [3] is listed as “renal vasodilating properties”. For the same compound, half-maximal inhibition in experiment [2] (IC50) required 12.3 µM. Moreover, in experiment [2], the “phosphodiesterase fraction III inhibition (in words)” value is recorded as “inhibit phosphodiesterase fraction III activity; also recorded: phosphodiesterase fraction III inhibiting properties”.

Take `COc1cc(OC)c2c(C)nc(O)cc2c1` [AH]: the change in vivo at 0.375 mg/kg was 50% in experiment [1] (read-out: CF (cardiac force)), 6% in experiment [1] (read-out: HR (heart rate)), -3% in experiment [1] (setting [4]) and 46% in experiment [1] (setting [5]). Also, the change in vivo at 1.2 mg/kg in experiment [3] (read-out: HR (heart rate)) was 25%; in experiment [3] (setting [4]), -6%; in experiment [3] (setting [6]), 13%; in experiment [3] (setting [7]) it was -17%. This compound also displayed an IC50 in experiment [2] of 80 µM.

Turning to `COc1ccc2c(C)nc(O)cc2c1` [AI], the change in vivo at 0.925 mg/kg is 65% in experiment [1] (read-out: CF (cardiac force)), 8% in experiment [1] (read-out: HR (heart rate)), 0% in experiment [1] (setting [4]) and 56% in experiment [1] (setting [5]). Moreover, the change in vivo at 1.2 mg/kg is 4% in experiment [3] (read-out: HR (heart rate)), -1% in experiment [3] (setting [4]), 7% in experiment [3] (setting [6]) and -7% in experiment [3] (setting [7]). This compound registered a concentration for half-maximal inhibition (IC50) in experiment [2] of 160 µM.

As to `CCCCOc1cc2c(C)nc(O)cc2cc1OC` [AL], the change in vivo at 0.375 mg/kg was 138% in experiment [1] (read-out: CF (cardiac force)), 22% in experiment [1] (read-out: HR (heart rate)), -10% in experiment [1] (setting [4]) and 46% in experiment [1] (setting [5]). In experiment [1], the “cardiotonic activity (in words)” value is recorded as “cardiotonic properties”. Moreover, the change in vivo at 1.2 mg/kg was 9% in experiment [3] (read-out: HR (heart rate)), -6% in experiment [3] (setting [4]), 13% in experiment [3] (setting [6]) and -17% in experiment [3] (setting [7]). Besides, the “renal vasodilating activity (in words)” value in experiment [3] is “renal vasodilating properties”. The same compound registered an IC50 in experiment [2] of 37 µM. Besides, the “phosphodiesterase fraction III inhibition (in words)” value in experiment [2] is “inhibit phosphodiesterase fraction III activity; also recorded: phosphodiesterase fraction III inhibiting properties”.
